Reference: PubChem BioAssay AID1259407 (Chemical Carcinogenesis Research Information System (CCRIS), 2018)
Active and inactive are the calls of the source. The rule behind the calls is not given here.

System: CCRIS mutagenicity, Ames/micronucleus/aberration tests
Test: CCRIS mutagenicity studies
[1] = Test System: AMES SALMONELLA TYPHIMURIUM, Strain/Indicator: TA98, Metabolic Activation: HAMSTER, LIVER, S-9, AROCLOR 1254 (10%), Method: PREINCUBATION
[2] = Test System: AMES SALMONELLA TYPHIMURIUM, Strain/Indicator: TA98, Metabolic Activation: NONE, Method: PREINCUBATION
[3] = Test System: AMES SALMONELLA TYPHIMURIUM, Strain/Indicator: TA98, Metabolic Activation: RAT, LIVER, S-9, AROCLOR 1254 (10%), Method: PREINCUBATION
[4] = Test System: AMES SALMONELLA TYPHIMURIUM, Strain/Indicator: TA100, Metabolic Activation: HAMSTER, LIVER, S-9, AROCLOR 1254 (10%), Method: PREINCUBATION
[5] = Test System: AMES SALMONELLA TYPHIMURIUM, Strain/Indicator: TA100, Metabolic Activation: NONE, Method: PREINCUBATION
[6] = Test System: AMES SALMONELLA TYPHIMURIUM, Strain/Indicator: TA100, Metabolic Activation: RAT, LIVER, S-9, AROCLOR 1254 (10%), Method: PREINCUBATION
[7] = Test System: AMES SALMONELLA TYPHIMURIUM, Strain/Indicator: TA1535, Metabolic Activation: HAMSTER, LIVER, S-9, AROCLOR 1254 (10%), Method: PREINCUBATION
[8] = Test System: AMES SALMONELLA TYPHIMURIUM, Strain/Indicator: TA1535, Metabolic Activation: NONE, Method: PREINCUBATION
[9] = Test System: AMES SALMONELLA TYPHIMURIUM, Strain/Indicator: TA1535, Metabolic Activation: RAT, LIVER, S-9, AROCLOR 1254 (10%), Method: PREINCUBATION
[10] = Test System: AMES SALMONELLA TYPHIMURIUM, Strain/Indicator: TA1537, Metabolic Activation: HAMSTER, LIVER, S-9, AROCLOR 1254 (10%), Method: PREINCUBATION
[11] = Test System: AMES SALMONELLA TYPHIMURIUM, Strain/Indicator: TA1537, Metabolic Activation: NONE, Method: PREINCUBATION
[12] = Test System: AMES SALMONELLA TYPHIMURIUM, Strain/Indicator: TA1537, Metabolic Activation: RAT, LIVER, S-9, AROCLOR 1254 (10%), Method: PREINCUBATION
[13] = Test System: AMES SALMONELLA TYPHIMURIUM, Strain/Indicator: TA100, Metabolic Activation: NONE, Method: STANDARD PLATE

Measured: mutagenic call

CCN(CC)c1ccc2c(-c3ccccc3C(=O)O)c3ccc(=[N+](CC)CC)cc-3oc2c1
active: Test System: AMES SALMONELLA TYPHIMURIUM, Strain/Indicator: TA98, Metabolic Activation: RAT, LIVER, S-9, BETA-NAPHTHOFLAVONE AND PHENOBARBITAL, Method: PREINCUBATION active; positive
inactive: Test System: AMES SALMONELLA TYPHIMURIUM, Strain/Indicator: TA97, Metabolic Activation: HAMSTER, LIVER, S-9, AROCLOR 1254 (10%), Method: PREINCUBATION inactive; negative | Test System: AMES SALMONELLA TYPHIMURIUM, Strain/Indicator: TA97, Metabolic Activation: HAMSTER, LIVER, S-9, AROCLOR 1254 (30%), Method: PREINCUBATION inactive; negative | Test System: AMES SALMONELLA TYPHIMURIUM, Strain/Indicator: TA97, Metabolic Activation: NONE, Method: PREINCUBATION inactive; negative | Test System: AMES SALMONELLA TYPHIMURIUM, Strain/Indicator: TA97, Metabolic Activation: RAT, LIVER, S-9, AROCLOR 1254 (10%), Method: PREINCUBATION inactive; negative | Test System: AMES SALMONELLA TYPHIMURIUM, Strain/Indicator: TA97, Metabolic Activation: RAT, LIVER, S-9, AROCLOR 1254 (30%), Method: PREINCUBATION inactive; negative | [1] inactive; negative | Test System: AMES SALMONELLA TYPHIMURIUM, Strain/Indicator: TA98, Metabolic Activation: HAMSTER, LIVER, S-9, AROCLOR 1254 (30%), Method: PREINCUBATION inactive; negative | [2] inactive; negative | [3] inactive; negative | Test System: AMES SALMONELLA TYPHIMURIUM, Strain/Indicator: TA98, Metabolic Activation: RAT, LIVER, S-9, AROCLOR 1254 (30%), Method: PREINCUBATION inactive; negative | [4] inactive; negative | Test System: AMES SALMONELLA TYPHIMURIUM, Strain/Indicator: TA100, Metabolic Activation: HAMSTER, LIVER, S-9, AROCLOR 1254 (30%), Method: PREINCUBATION inactive; negative | [5] inactive; negative | [6] inactive; negative | Test System: AMES SALMONELLA TYPHIMURIUM, Strain/Indicator: TA100, Metabolic Activation: RAT, LIVER, S-9, AROCLOR 1254 (30%), Method: PREINCUBATION inactive; negative | Test System: AMES SALMONELLA TYPHIMURIUM, Strain/Indicator: TA1535, Metabolic Activation: HAMSTER, LIVER, S-9, AROCLOR 1254 (5%), Method: PREINCUBATION inactive; negative | [7] inactive; negative | Test System: AMES SALMONELLA TYPHIMURIUM, Strain/Indicator: TA1535, Metabolic Activation: HAMSTER, LIVER, S-9, AROCLOR 1254 (30%), Method: PREINCUBATION inactive; negative | [8] inactive; negative | Test System: AMES SALMONELLA TYPHIMURIUM, Strain/Indicator: TA1535, Metabolic Activation: RAT, LIVER, S-9, AROCLOR 1254 (5%), Method: PREINCUBATION inactive; negative | [9] inactive; negative | Test System: AMES SALMONELLA TYPHIMURIUM, Strain/Indicator: TA1535, Metabolic Activation: RAT, LIVER, S-9, AROCLOR 1254 (30%), Method: PREINCUBATION inactive; negative | [10] inactive; negative | [11] inactive; negative | [12] inactive; negative | Test System: AMES SALMONELLA TYPHIMURIUM, Strain/Indicator: TA1538, Metabolic Activation: NONE, Method: STANDARD PLATE inactive; negative | Test System: AMES SALMONELLA TYPHIMURIUM, Strain/Indicator: TA1538, Metabolic Activation: RAT, LIVER, S-9, AROCLOR 1254, Method: STANDARD PLATE inactive; negative | Test System: CHINESE HAMSTER V-79, Strain/Indicator: V-79/6-THIOGUANINE, Metabolic Activation: NONE, Method: SUSPENSION/PLATE inactive; negative | Test System: CHINESE HAMSTER V-79, Strain/Indicator: V-79/6-THIOGUANINE, Metabolic Activation: RAT, LIVER, S-9, PHENOBARBITAL AND BETA-NAPHTHOFLAVONE, Method: SUSPENSION/PLATE inactive; negative

O=C(O)c1cc(Cl)cc(Cl)c1
inactive: [2] inactive; negative | Test System: AMES SALMONELLA TYPHIMURIUM, Strain/Indicator: TA98, Metabolic Activation: RAT LIVER S-9, PCB, Method: PREINCUBATION inactive; negative | [5] inactive; negative | Test System: AMES SALMONELLA TYPHIMURIUM, Strain/Indicator: TA100, Metabolic Activation: RAT LIVER S-9, PCB, Method: PREINCUBATION inactive; negative | Test System: AMES SALMONELLA TYPHIMURIUM, Strain/Indicator: TA104, Metabolic Activation: NONE, Method: PREINCUBATION inactive; negative | Test System: AMES SALMONELLA TYPHIMURIUM, Strain/Indicator: TA104, Metabolic Activation: RAT LIVER S-9, PCB, Method: PREINCUBATION inactive; negative | Test System: E.COLI, Strain/Indicator: WP2 UVRA, Metabolic Activation: NONE, Method: PREINCUBATION inactive; negative | Test System: E.COLI, Strain/Indicator: WP2 UVRA, Metabolic Activation: RAT LIVER S-9, PCB, Method: PREINCUBATION inactive; negative

CC(Br)C(N)=O (stereo unspecified)
active: Test System: AMES SALMONELLA TYPHIMURIUM, Strain/Indicator: TA100, Metabolic Activation: MOUSE, LIVER, S-9, AROCLOR 1254, Method: STANDARD PLATE active; positive | [13] active; positive

CC(C)=CCCC(C)CC=O (stereo unspecified)
inactive: Test System: AMES SALMONELLA TYPHIMURIUM, Strain/Indicator: TA97A, Metabolic Activation: NONE, Method: STANDARD PLATE inactive; negative | Test System: AMES SALMONELLA TYPHIMURIUM, Strain/Indicator: TA97A, Metabolic Activation: RAT LIVER S-9, AROCLOR 1254, Method: STANDARD PLATE inactive; negative | Test System: AMES SALMONELLA TYPHIMURIUM, Strain/Indicator: TA98, Metabolic Activation: NONE, Method: STANDARD PLATE inactive; negative | Test System: AMES SALMONELLA TYPHIMURIUM, Strain/Indicator: TA98, Metabolic Activation: RAT LIVER S-9, AROCLOR 1254, Method: STANDARD PLATE inactive; negative | [13] inactive; negative | Test System: AMES SALMONELLA TYPHIMURIUM, Strain/Indicator: TA100, Metabolic Activation: RAT LIVER S-9, AROCLOR 1254, Method: STANDARD PLATE inactive; negative | Test System: AMES SALMONELLA TYPHIMURIUM, Strain/Indicator: TA102, Metabolic Activation: NONE, Method: STANDARD PLATE inactive; negative | Test System: AMES SALMONELLA TYPHIMURIUM, Strain/Indicator: TA102, Metabolic Activation: RAT LIVER S-9, AROCLOR 1254, Method: STANDARD PLATE inactive; negative

Cc1ccc(NC(N)=O)cc1
inactive: [1] inactive; negative | [2] inactive; negative | [3] inactive; negative | [4] inactive; negative | [5] inactive; negative | [6] inactive; negative | [7] inactive; negative | [8] inactive; negative | [9] inactive; negative | [10] inactive; negative | [11] inactive; negative | [12] inactive; negative

CC1(C)Cc2cccc(O)c2O1
inactive: End Point: IN VIVO MICRONUCLEUS, Test System: BONE MARROW POLYCHROMATIC ERYTHROCYTES, Species: MOUSE, Strain/Sex: KM/MALE, FEMALE, Route: IP INJECTION inactive; negative
